“Also recorded” adds a separate entry of the source. *1 amine or outer side, *2 acyl side, *3 side chain or, on linkers, in order; H or OH if unused. Where a SMILES comes first, the peptide text is derived from it. Bridges are numbered along the chain shown (N, C = ends). Roman numbers before positions name the chains, in order. Where no end group is shown, it is not given here. [ ]: non-standard residue; d: D form. Actinocin(9to1) = Cc1c2oc3c(C)ccc(C(=O)[*:1])c3nc-2c(C(=O)[*:2])c(N)c1=O; NMeV = CN[C@H](C(=O)O)C(C)C; Sar = CNCC(=O)O
Tests used:
[1] = test system: K 562 human myeloid cell line; test: Natural lymphocyte cytotoxicity against K 562 cells (51Cr release); assay type: cell-based; settings: for Percent Cytotoxicity: PBL, 35 femtomoles, 2.5 hours 37° C., 40:1; for Percent Cytotoxicity: Treated & Washed Lymphocytes: 35 femtomoles per lymphocyte, effector/target 40:1
Protocol: Aliquots of these lymphocytes were also retained as controls and not incubated. In addition, potentially SCM-responding lymphocytes were obtained from donors having cancer, and treated in the same manner-some aliquots incubated with plasma containing SCM factor and others retained as controls and not incubated.
After incubation the cytotoxicity of the lymphocytes was tested in accordance with the method described in M. R. Potter and M. Moore, "Natural Cytotoxic Reactivity of Human Lymphocyte Subpopulations," Immunology 37, 187-194 (1979). In accordance with this published method cells of the K 562 human myeloid cell line labeled with ^51 Cr were used as target cells for the assay. The potentially SCM-responding lymphocytes were used as the effector cells. The ratio of target cells to effector cells was 1 to 20. […] The percent of cytotoxicity is determined as follows: [formula] where RS is the percent of ^51 Cr release in the sample, RC the percent of ^51 Cr release in the control and RT is the percent of ^51 Cr release in the presence of a detergent, Triton X-100. […] When the incubation was performed with potentially SCM-responding lymphocytes from cancer patients, the decrease in cytotoxicity was smaller, between 40 and 90%. […] The lower level of cytotoxicity present in cells from cancer patients was consistent with a decrease of such cytotoxicity caused by in vivo exposure to factors such as the cancer-associated SCM recognition factor.
The purified synthetic SCM factor molecule and peptides F1-F5, F7, and F8, as described above in Example 16, were investigated to determine their suppressive effect on the natural cytotoxicity of lymphocytes against cancer cells, using the human myeloid cell line K 562 as target as measured by the conventional ^51 Cr release method (Example 13).
In brief, the K 562 target cells grown in suspension in RPMI-FBS culture medium were washed and labeled for 3 hours at 37° C. with 100 μCi sodium [^51 Cr]chromate and then washed 4 times in RPMI growth medium. The effector lymphocytes used were isolated from heparinized peripheral blood of normal healthy donors using either appropriate density solutions to isolate the SCM-responding subpopulation of lymphocytes, as described above under "Isolation of SCM-responding Lymphocytes," or the conventional separation medium Histopaque 1077 for isolation of the total population of peripheral blood lymphocytes (PBL). The effector cell to target cell ratio used in these experiments was 40:1. Control samples contained target cells only and were used to determine background isotope release from the target cells. The test samples contained 0.2 mL aliquots of labeled target cells to which 0.2 mL of effector lymphocytes was added; the effector lymphocytes were either untreated or had been pretreated with either the entire synthetic SCM factor or any of the fragments designated F1 to F5, F7, or F8 for 2.5 hours at 37° C. The tests were carries out in triplicate. Cell suspensions were incubated for 18 hours at 37° C. in an atmosphere of 95% air and 5% CO2. Samples were then centrifuged for 10 minutes at 200 xg. From each test sample tube, a 0.2 mL aliquot of the supernatant was removed. Both the supernatant and the remaining cell pellet were counted in a Beckman gamma counter. The maximum possible isotope release was taken as the count obtained by adding the counts for the supernatant and cell pellets. The percentage of ^51 Cr release was determined for each of the triplicate samples; using the mean value of ^51 Cr release, the percentage of cytotoxicity was calculated according to the equation presented in Table 25.

[2] = test system: SCM-responding lymphocytes from healthy donors; test: Modification/induction of SCM response of lymphocytes from healthy donors by preincubation with SCM factor; assay type: cell-based, human; settings: 10 μg/5×10^6 cells during incubation with synthetic SCM factor
Protocol: 10, 1986, and entitled "Automated Collection of Buoyant Density Specific Cells from Density Gradients." Aliquots of these cells were incubated in 3 ml of the following: (a) cell-free blood plasma from cancer patients; (b) plasma from cancer patients ultrafiltered for 12 hours through an Amicon™ UM2 filter with a molecular weight cutoff of 1000 daltons; (c) plasma from cancer patients ultrafiltered for 12 hours through an Amicon™ UM5 filter with a nominal molecular weight cutoff of 500 daltons; (d) general cancer-associated SCM factor as purified through the desalting or Sephadex G-10 column stage; (e) the factor as purified through the Sephadex G-50 column stage; (f) the factor as purified through the DEAE-cellulose column step; (g) the factor as finally purified through the RP-HPLC step; and (h) plasma from healthy donors ultrafiltered through an Amicon™ UM2 filter with a nominal molecular weight cutoff of 1000 daltons. […]
Before being contacted with either a mitogen or with the SCM factor for determination of the RRSCM the incubated cells were thoroughly washed. The presence or absence of modification was determined by the ratio of the polarization value of the lymphocyte suspension after a short contact period with substrates containing the SCM factor over the polarization value of the lymphocyte suspension after a short contact period with phytohaemagglutinin (PHA). […]

T1080 fibrosarcoma cells = test: SCM factor in cultured cancer cells by noncompetitive ELISA; assay type: cell-based, human
Protocol: (§1) The SCM factors secreted from human cancer cells in culture whose amino acid sequences were presented in Example 24 also reacted with the anti-SCM antibody of Example 20. A variation on the ELISA assay of Example 21 was used. In this version of the ELISA assay, the assay was performed directly on the eluate from the RP-HPLC purification step that remained adsorbed to the Eppendorf™ collection tubes after loading of the bulk of the eluates onto the sequenator disk. No other SCM factor was added, and there was no additional sample added to the assay. This version of the SCM ELISA assay is noncompetitive; the larger is the quantity of SCM factor adsorbed to the Eppendorf™ tubes, the higher is the measured A405. The results, shown in Table 15, clearly indicate the presence of material able to react with anti-SCM antibody in these fractions.
(§2) Human cancer cells in culture were directly shown to contain SCM-factor molecules by antibody reactivity. Washed cells from monolayered cultures of several human cancer cells: MCF7 breast cancer cells; T1080 fibrosarcoma cells; A2780 ovarian cancer cells; and HCT80 colon cancer cells, were assayed directly by the noncompetitive ELISA assay procedure of Example 25.

MCF7 breast cancer cells = test: as above; assay type: cell-based, human
Protocol: as §1, §2
As shown in Table 17 of Example 26, treatment of human cultured cancer cells with cycloheximide, an inhibitor of protein synthesis, decreases the amount of SCM factor produced by these cells. […] The amounts of SCM factor per 7×10^6 cells in the presence or absence of 10^-3 molar ascorbic acid after a 16-hour incubation were measured by the noncompetitive ELISA procedure of Example 25. The aliquot of cancer cells incubated in the presence of ascorbate ions produced 43.9% less SCM factor than untreated control cells.

[3] = test system: SCM-responding lymphocytes; settings: from prior applications Ser. No. 07/167,007 and 07/163,250; cited from earlier work
[4] = experiment with untreated control 72.7 ± 1.2
[5] = experiment with untreated control 80.4 ± 1.0
[6] = experiment with untreated control 71.2 ± 1.5
[7] = cycloheximide 50 μg/10^6 cells, 16 hrs
[8] = experiment with untreated control 46.5 ± 1.5

MIPPEVKFNKPFVF [F5, M-I-P-P-E-V-K-F-N-K-P-F-V-F]
Percent Cytotoxicity [1, 4]: 72.7 ± 1.3%
Percent Cytotoxicity [1, 5]: 79.8 ± 0.9%

VPLFMGK [F8]
Percent Cytotoxicity ([1]; experiment with untreated control 31.0 ± 2.0): 33.0 ± 1.8%
Percent Cytotoxicity [1, 6]: 71.7 ± 1.2%

Cc1c2oc3c(C)ccc(C(=O)N[C@@H]4C(=O)N[C@H](C(C)C)C(=O)N5CCC[C@H]5C(=O)N(C)CC(=O)N(C)[C@@H](C(C)C)C(=O)O[C@@H]4C)c3nc-2c(C(=O)N[C@@H]2C(=O)N[C@H](C(C)C)C(=O)N3CCC[C@H]3C(=O)N(C)CC(=O)N(C)[C@@H](C(C)C)C(=O)O[C@@H]2C)c(N)c1=O [Actinomycin D, actinomycin D] (I: T[dV]P[Sar][NMeV] / II: T[dV]P[Sar][NMeV]; ester I:1-I:C, II:1-II:C; linker I:N-II:N via Actinocin(9to1))
induction of response to synthetic SCM factor in presence of protein synthesis inhibitor [2]: no response to synthetic SCM factor was induced

C[C@@H]1C[C@@H]([C@H](O)CC2CC(=O)NC(=O)C2)C(=O)[C@@H](C)C1 [Cycloheximide, cycloheximide]
Corrected A405 As % of Control (T1080 fibrosarcoma cells; [7]): 66.0 % of Control
Corrected A405 (SCM factor synthesis) (T1080 fibrosarcoma cells; cycloheximide 50 μg/10^6 cells, 16 hrs, control 1.5060): 0.9940
decrease of concentration of SCM factor associated with the cells (T1080 fibrosarcoma cells; cycloheximide treatment): 34%
induction of response to synthetic SCM factor in presence of protein synthesis inhibitor [2]: no response to synthetic SCM factor was induced
Corrected A405 As % of Control (MCF7 breast cancer cells; cycloheximide 20 μg/10^6 cells, 3 hrs): 91.2 % of Control
Corrected A405 (SCM factor synthesis) (MCF7 breast cancer cells; cycloheximide 20 μg/10^6 cells, 3 hrs, control 2.0716): 1.8893
Corrected A405 As % of Control (MCF7 breast cancer cells; [7]): 74.7 % of Control
Corrected A405 (SCM factor synthesis) (MCF7 breast cancer cells; cycloheximide 50 μg/10^6 cells, 16 hrs, control 0.9654): 0.7217
decrease of concentration of SCM factor associated with the cells (MCF7 breast cancer cells; cycloheximide treatment): 25.3%

F-W-G-A-E-G-Q-R (FWGAEGQR)
SCM factor activity [3]: with SCM-factor activity

O=C1O[C@H]([C@@H](O)CO)C(O)=C1O [L-ascorbic acid]
Corrected ELISA A405 (SCM factor synthesis) (MCF7 breast cancer cells; 1 × 10^-3 M, pH 7.1, 16 hrs at 37° C., 7×10^6 cells, control 1.7448): 0.9788
less SCM factor produced than untreated control cells (MCF7 breast cancer cells; 10^-3 molar, 16-hour incubation): 43.9%
activity at 1000 µM (MCF7 breast cancer cells; Homo sapiens, MCF7, 1 × 10^-3 M, pH 7.1, 16 hrs at 37° C., read-out: Corrected ELISA A405 as % of Control): 56.1%

FLMIDQNTK [F4, F-L-M-I-D-Q-N-T-K]
Percent Cytotoxicity [1, 8]: 48.6 ± 1.3%
Percent Cytotoxicity [1, 4]: 76.2 ± 1.3%
Percent Cytotoxicity [1, 5]: 81.0 ± 1.5%

MIPPEVKFNKPFVFLMDQNTK [F1, MIPPEVKFNKPFVFLMDQNTK]
Percent Cytotoxicity [1, 4]: 78.5 ± 1.0%
Percent Cytotoxicity [1, 5]: 81.0 ± 1.0%

FLMIDQNTKVPLFMGK [F7]
Percent Cytotoxicity [1, 6]: 72.7 ± 1.0%

FNKPFVFLMIDQNTK [F3, F-N-K-P-F-V-F-L-M-I-D-Q-N-T-K]
Percent Cytotoxicity [1, 4]: 74.5 ± 1.5%
Percent Cytotoxicity [1, 5]: 80.5 ± 1.0%

MIPPEVKFNKPFVFLMIDQNTKVPLFMGK [Synthetic SCM Factor, MIPPEVKFNKPFVFLMIDQNTKVPLFMGK]
dose resulting in a 50% decrease in cytotoxicity [1]: 11.5 femtomoles per lymphocyte
quantity required for a 50% decrease of the cytotoxic effect [1]: 11.5 femtomoles
Percent Cytotoxicity: Treated & Washed Lymphocytes ([1]; PBL of healthy donors): 3.0 ± 0.8%
Percent Cytotoxicity [1, 8]: 0.1 ± 0.8%
Percent Cytotoxicity [1, 4]: 3.2 ± 0.1%
Percent Cytotoxicity [1, 5]: 3.1 ± 0.8%
Percent Cytotoxicity: Treated & Washed Lymphocytes ([1]; SCM-R lymphocytes of healthy donors): 0.1 ± 0.9%

FNKPFVFLMIDQNTKVPLFMGK [F2, FNKPFVFLMIDQNTKVPLFMGK]
Percent Cytotoxicity [1, 8]: 2.4 ± 0.2%
Percent Cytotoxicity [1, 4]: 14.9 ± 1.5%
Percent Cytotoxicity [1, 5]: 2.6 ± 1.7%

F-S-W-G-A-E-G-Q-R (FSWGAEGQR) [EAE peptide, experimental allergic encephalitogenic peptide]
SCM factor activity [3]: has no SCM factor activity; also recorded: completely devoid of SCM activity

Source: US5443967A, “DNA encoding the cancer associated SCM recognition factor” (priority 1993, dated 1995)
